Data published in patent US20110288106A1, “ADENINE RECEPTOR LIGANDS” (Rheinische Friedrich-Wilhelms-Universitaet Bonn …, priority 2008, published 2011).
Where a name gives a salt, the structure may show the parent alone.

Key:
[1] = target: T1, rAde1R (Rattus norvegicus, UniProt Q7TN49); conditions: literature, Gorzalka et al. 2005; cited from earlier work
T1 construct: expressed in transfected cells; host or cells: 1321N1 human astrocytoma cells
T1 sequence (Q7TN49 1-304): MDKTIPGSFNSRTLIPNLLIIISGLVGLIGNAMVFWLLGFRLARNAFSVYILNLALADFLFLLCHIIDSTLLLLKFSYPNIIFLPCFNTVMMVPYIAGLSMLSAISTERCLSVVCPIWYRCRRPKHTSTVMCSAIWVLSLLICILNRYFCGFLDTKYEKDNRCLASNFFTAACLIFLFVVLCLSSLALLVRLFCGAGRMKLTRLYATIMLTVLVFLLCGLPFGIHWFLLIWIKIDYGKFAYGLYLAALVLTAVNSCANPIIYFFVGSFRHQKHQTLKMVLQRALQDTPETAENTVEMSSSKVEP

[2] = test system: Human adenine receptor; assay: Radioligand binding assay, [3H]adenine competition, HEK293 cell membrane preparations; conditions: HEK293 cell membranes, vs. 10 nM [3H]adenine, mean ± SEM
Method: (§1) Competition assays with [8-^3H]adenine (27 Ci/mmol; GE Healthcare) were carried out as described previously (Gorzalka et al., Mol. Pharmacol. 2005, 67, 955-964). In brief, 50 μg of rat cortical membrane preparations or 100 μg of protein (HEK293 (human embryonic kidney) cell membrane preparations) was incubated with 10 nM [8^3H]adenine in 50 mM Tris-HCl buffer, pH 7.4, in a total volume of 200 μl. Inhibition curves were determined using 6 to 9 different concentrations of selected adenine derivative. Three separate experiments were performed each in triplicate. Nonspecific binding was determined by using 100 μM adenine. Incubations were carried out for 1 h at room temperature and terminated by rapid filtration through GF/B glass fiber filters (Whatman, Dassel, Germany). Filters were washed three times with ice-cold 50 mM Tris-HCl buffer, pH 7.4, 3 ml each. Filter-bound radioactivity was measured by liquid scintillation counting.
(§2) Data points represent means±SEM of three separate experiments each performed in triplicate.

[3] = target: T1, rAde1R; assay: cAMP-dependent luciferase assay, inhibition of isoproterenol-stimulated cAMP accumulation; format: cell-based; conditions: for effect on isoproterenol-induced cAMP accumulation: 3 nM isoproterenol, n=3
Method: (§3) 1321N1 cells stably expressing the rAde1R were cultured in DMEM supplemented with 10% (v/v) FCS, L-glutamine (2 mM), penicillin (100 U/ml), streptomycin (100 U/ml) and 400 μg/ml G 418 at 37° C. under a humidified atmosphere containing 5% CO2. Cells were cultured in 75 cm^2 flasks (3.2×10^5) for 24 h without antibiotics so that they were 90-95% confluent before transfection. The cAMP responsive reporter plasmid (pCER-luc) or serum response element (pSRE-luc) was transfected into 1321N1 cells expressing rat adenine receptors using Lipofectamine 2000 as a transfection reagent.
Reporter cells were seeded at a density of […] cells/well in a 24-well plate 18-20 hr prior to assay. After removal of culture medium, cells were washed twice with Hanks' balanced salt solution (containing 20 mM HEPES, pH 7.3). Adenine and selected adenine derivatives were diluted in Hanks' balanced salt solution containing 3 nM isoproterenol and then incubated with reporter cells in the same buffer for 3 h at 37° C. The reaction was stopped by removal of the reaction buffer and the luciferase expression was determined using Bright-Glo™ Luciferase assay system (Promega) as described in the kit protocol. Plates were shaken for 2 min to ensure complete lysis of cells. Then the total volume from each well was transferred to a white 96-well plate (Greiner bio-one). Luminescence was determined using a NOVOstar microplate reader (BMG labtech); each well was counted for 2 s at 20° C.

[4] = target: T2, Rat adenine receptor (Rattus norvegicus, UniProt Q7TN49); assay: Radioligand binding assay, [3H]adenine competition, rat cortical membrane preparations; conditions: rat cortex membranes, vs. 10 nM [3H]adenine, mean ± SEM
T2 construct: 50 μg of rat cortical membrane preparations; from tissue; host or cells: rat brain cortex membranes
T2 sequence (Q7TN49 1-304): T1 sequence (Q7TN49 1-304)
Method: as §1, §2

[5] = test system: non-transfected 1321N1 astrocytoma cells; assay: Erk phosphorylation assay (SRE-dependent luciferase), non-transfected cells; format: cell-based, human; conditions: 6 h
[6] = target: T1, rAde1R; assay: Erk phosphorylation assay (SRE-dependent luciferase), 1321N1 cells expressing rAde1R; format: cell-based; conditions: 1321N1 astrocytoma cells stably expressing rAde1R, 6 h
Method: as §3
Erk phosphorylation was investigated by a gene reporter assay measuring SRE-dependent luciferase activity in astrocytoma cells stably transfected with the rat adenine receptor. The cells were seeded in a 24-well plate prior to the assay. The culture medium was removed and cells were washed twice with Hanks' balanced salt solution without HEPES, pH 7.3. Adenine was diluted in the same buffer and then added to the cells, which were incubated for 6 h at 37° C. The reaction was stopped by removal of the reaction buffer and the luciferase expression was determined as described before.

[7] = 10 μM compound, 1321N1 cells expressing rAde1R

SMILES | Ki [4] [µM] | melting point [°C] | Ki [2] [µM] | other results
Cn1cnc2ncnc-2c1N [1-methyl-adenine] |  |  |  | values at the rAde1R [1]: micromolar range
CNCCC(=O)Nc1ncnc2[nH]cnc12 [Example 9, 3-Methyl-amino-N(9H-purin-6-yl)propionamide dihydrochloride] | 0.292 ± 0.056 |  | 1.83 ± 0.09 | effect on isoproterenol-induced cAMP accumulation [3, 7]: no significant effect; Kb ([3]; calculated from shift of adenine curve by 10 μM compound 9): 0.165 µM; effect on concentration-response curve of adenine ([3]; compound 9 at 10 μM, 1321N1 cells expressing rAde1R, FIG. 5): shifted the concentration-response curve of adenine to the right proving that it is an antagonist
CCCN(CCC(=O)Nc1ncnc2[nH]cnc12)C(=O)OC(C)(C)C [Example 3, 3-(tert-Butyloxycarbonyl-propyl-amino)-N(9H-purin-6-yl)propionamide] | 11.8 ± 0.8 | 205 | ≥ 100 | 
Cl.NCCC(=O)Nc1ncnc2[nH]cnc12 [Example 14, 3-Amino-N(9H-purin-6-yl)propionamide hydrochloride] | 0.0215 ± 0.0056 | 204 | 0.0447 ± 0.0034 | effect on isoproterenol-induced cAMP accumulation ([3]; 1 μM compound, 1321N1 cells expressing rAde1R): adenine receptor agonists; inhibition of isoproterenol-stimulated cAMP accumulation by different concentrations ([3]; 1321N1 cells expressing rAde1R, FIG. 4): concentration-dependent inhibition
Cn1cnc2c(N)ncnc21 [9-methyl-adenine] |  |  |  | values at the rAde1R [1]: micromolar range
CCNCCC(=O)Nc1ncnc2[nH]cnc12 (as salt: hydrochloride) [Example 10, 3-Ethyl-amino-N(9H-purin-6-yl)propionamide dihydrochloride] |  | 216 |  | 
CCN(CCC(=O)Nc1ncnc2[nH]cnc12)C(=O)OC(C)(C)C [Example 2, 3-(tert-Butyloxycarbonyl-ethyl-amino)-N(9H-purin-6-yl)propionamide] | 2.93 ± 0.4 | 198 | 7.7 ± 2.4 | 
Cn1cnc2ncnc(N)c21 [7-methyl-adenine] |  |  |  | values at the rAde1R [1]: micromolar range
CN(CCC(=O)Nc1ncnc2[nH]cnc12)C(=O)OC(C)(C)C [Example 1, 3-(tert-Butyloxycarbonyl-methyl-amino)-N(9H-purin-6-yl)propionamide] | 0.949 ± 0.135 | 205 | 5.47 ± 1.28 | effect on isoproterenol-induced cAMP accumulation [3, 7]: adenine receptor agonists
Cn1cnc(N)c2ncnc1-2 [3-methyl-adenine] |  |  |  | values at the rAde1R [1]: micromolar range
CNCCC(=O)Nc1ncnc2[nH]cnc12 (as salt: hydrochloride) [Example 9, 3-Methyl-amino-N(9H-purin-6-yl)propionamide dihydrochloride] |  | 213 |  | 
CC(C)(C)OC(=O)NCCCC(=O)Nc1ncnc2[nH]cnc12 [Example 8, 4-tert-Butyloxycarbonylamino-N(9H-purin-6-yl)butyramide] | 3.39 ± 0.56 | 223 | 2.68 ± 0.37 | 
Nc1ncnc2nc[nH]c12 [adenine] |  |  |  | SRE-dependent luciferase expression / erk phosphorylation [5]: no effect; EC50 ([3]; in the absence of compound 9): 0.00224 ± 0.00183 µM; EC50 ([3]; in the presence of compound 9 (10 μM)): 0.115 ± 0.042 µM; Ki [1]: 0.0299 µM; SRE-dependent luciferase expression / erk phosphorylation [6]: dose-dependent stimulation of erk phosphorylation

Second part, led by results:

Ki [4] [µM] | melting point [°C] | SMILES | Ki [2] [µM] | other results
 | 197 | O=C(CCNCc1ccccc1)Nc1ncnc2[nH]cnc12 (as salt: hydrochloride) [Example 12, 3-Benzyl-amino-N(9H-purin-6-yl)propionamide dihydrochloride] |  | 
0.852 ± 0.131 |  | O=C(CCNCc1ccccc1)Nc1ncnc2[nH]cnc12 [Example 12, 3-Benzyl-amino-N(9H-purin-6-yl)propionamide dihydrochloride] | 3.27 ± 1.23 | effect on isoproterenol-induced cAMP accumulation [3, 7]: adenine receptor agonists
 | 171 | CCCNCCC(=O)Nc1ncnc2[nH]cnc12 (as salt: hydrochloride) [Example 11, 3-Propyl-amino-N(9H-purin-6-yl)propionamide dihydrochloride] |  | 
2.12 ± 0.07 |  | O=C(CCNCCc1ccccc1)Nc1ncnc2[nH]cnc12 [Example 13, 3-Phenethyl-amino-N(9H-purin-6-yl)propionamide dihydrochloride] | 6.93 ± 0.83 | 
0.334 ± 0.031 | 191 | CC(C)(C)OC(=O)NCCC(=O)Nc1ncnc2[nH]cnc12 [Example 7, 3-tert-Butyloxycarbonylamino-N(9H-purin-6-yl)propionamide] | 0.719 ± 0.081 | 
1.29 ± 0.24 |  | CCCNCCC(=O)Nc1ncnc2[nH]cnc12 [Example 11, 3-Propyl-amino-N(9H-purin-6-yl)propionamide dihydrochloride] | 6.85 ± 2.17 | 
9.07 ± 0.8 | 162 | CC(C)(C)OC(=O)N(CCC(=O)Nc1ncnc2[nH]cnc12)CCc1ccccc1 [Example 6, 3-(tert-Butyloxycarbonyl-phenethyl-amino)-N(9H-purin-6-yl)propionamide] | ≥ 100 | 
9.02 ± 0.55 | 202 | CC(C)(C)OC(=O)N(CCC(=O)Nc1ncnc2[nH]cnc12)Cc1ccccc1 [Example 5, 3-(tert-Butyloxycarbonyl-benzyl-amino)-N(9H-purin-6-yl)propionamide] | 42.1 ± 1.8 | 
1.56 ± 0.026 | 185 | CCCCCCN(CCC(=O)Nc1ncnc2[nH]cnc12)C(=O)OC(C)(C)C [Example 4, 3-(tert-Butyloxycarbonyl-hexyl-amino)-N(9H-purin-6-yl)propionamide] | 19.7 ± 0.7 | 
0.0805 ± 0.003 | 199 | Cl.NCCCC(=O)Nc1ncnc2[nH]cnc12 [Example 15, 4-Amino-N(9H-purin-6-yl)butyramide hydrochloride] | 0.149 ± 0.045 | effect on isoproterenol-induced cAMP accumulation [3, 7]: adenine receptor agonists
 | 196 | O=C(CCNCCc1ccccc1)Nc1ncnc2[nH]cnc12 (as salt: hydrochloride) [Example 13, 3-Phenethyl-amino-N(9H-purin-6-yl)propionamide dihydrochloride] |  | 
0.508 ± 0.163 |  | CCNCCC(=O)Nc1ncnc2[nH]cnc12 [Example 10, 3-Ethyl-amino-N(9H-purin-6-yl)propionamide dihydrochloride] | 1.34 ± 0.48 | effect on isoproterenol-induced cAMP accumulation [3, 7]: adenine receptor agonists
